This passage reports melting point results from US6515140B2, “Fused pyrrolecarboxamides; a new class of GABA brain receptor ligands” (Neurogen Corporation, priority 1996, dated 2003).

Consider `CCNCCOc1ccncc1NC(=O)c1c[nH]c2c1C(=O)CCC2.Cl`, for which the melting point was 178 to 180 °C. With `CCCNCCOc1ccncc1NC(=O)c1c[nH]c2c1C(=O)CCC2.Cl` the figure was 177 to 178 °C; with `CC(C)NCCOc1ccncc1NC(=O)c1c[nH]c2c1C(=O)CCC2.Cl`, 167 to 169 °C; with `CCCCNCCOc1ccncc1NC(=O)c1c[nH]c2c1C(=O)CCC2.Cl`, 157 to 159 °C. For the compound `Cl.O=C(Nc1cnccc1OCCNCc1ccccc1)c1c[nH]c2c1C(=O)CCC2`, the melting point fell in the range of 143 to 145 °C.

Compound `Cl.O=C(Nc1cnccc1OCc1cccnc1)c1c[nH]c2c1C(=O)CCC2` came in with a melting point of 276 to 277 °C.

`Cl.O=C(Nc1cnccc1OCc1ccncc1)c1c[nH]c2c1C(=O)CCC2` returned a melting point of 293 °C.

As for `Cl.O=C(Nc1cnccc1OCCN1CCCC1)c1c[nH]c2c1C(=O)CCC2`, the melting point is 188 to 245 °C (dec.). To `Cl.O=C(Nc1cnccc1OCCN1CCCCC1)c1c[nH]c2c1C(=O)CCC2` belongs 208 to 211 °C. With `CCNCCOc1ccc(NC(=O)c2c[nH]c3c2C(=O)CCCC3)cc1.Cl`, the melting point lay within 227 to 228 °C.

In the case of `Cl.O=C(Nc1cnccc1OCc1ccncc1)c1c[nH]c2c1C(=O)CCCC2`, the melting point is 235 to 240 °C (dec.).

`Cl.O=C(Nc1cnccc1OCCN1CCCC1)c1c[nH]c2c1C(=O)CCCC2` returned a melting point of 160 to 162 °C. With `CCCNCCOc1ccncc1NC(=O)c1c[nH]c2c1C(=O)CCCC2.Cl` the figure was 210 °C. With `CCN(CC)CCN(C)C(=O)COc1ccc(NC(=O)c2c[nH]c3c2C(=O)CCC3)cc1` the figure was 220 to 228 °C; with `CCN(CC)CCN(CC)C(=O)COc1ccc(NC(=O)c2c[nH]c3c2C(=O)CCC3)cc1`, 165 to 167 °C; with `CCCNCCOc1ccc(NC(=O)c2c[nH]c3c2C(=O)CCC3)cc1F.Cl`, 373 °C.

Compound `CCCCNCCOc1ccc(NC(=O)c2c[nH]c3c2C(=O)CCC3)cc1.Cl` showed a melting point of 187 to 190 °C.

In turn, `Cl.O=C(Nc1ccc(OCC2CCCNC2)cc1)c1c[nH]c2c1C(=O)CCC2` (centres unmarked) had a melting point of 196 to 199 °C. With `O=C(Nc1ccc(OCCO)cc1)c1c[nH]c2c1C(=O)CCC2` [Compound 16, N-[4-(Hydroxyethoxy)phenyl]-4-oxo-4,5,6,7-tetrahydro-1H-indole-3-carboxamide] the figure was 245 to 247 °C. With `COCc1ccc(NC(=O)c2c[nH]c3c2C(=O)CCC3)cc1` [Compound 18, N-[4-(Methoxymethyl)phenyl]-4-oxo-4,5,6,7-tetrahydro-1H-indole-3-carboxamide] the figure was 164 to 165 °C. With `CNCc1ccc(NC(=O)c2c[nH]c3c2C(=O)CCC3)cc1` [Compound 19, N-[4-(Methylaminomethyl)phenyl]-4-oxo-4,5,6,7-tetrahydro-1H-indole-3-carboxamide], the melting point lay within 217 to 219 °C. For the compound `CCNCc1ccc(NC(=O)c2c[nH]c3c2C(=O)CCC3)cc1` [Compound 21, N-[4-(Ethylaminomethyl)phenyl]-4-oxo-4,5,6,7-tetrahydro-1H-indole-3-carboxamide], the melting point fell in the range of 194 to 195 °C. To `CC(C)NCc1ccc(NC(=O)c2c[nH]c3c2C(=O)CCC3)cc1` [Compound 22, N-[4-(Isopropylaminomethyl)phenyl]-4-oxo-4,5,6,7-tetrahydro-1H-indole-3-carboxamide] belongs 164 to 166 °C.

As for `CN(C)Cc1ccc(NC(=O)c2c[nH]c3c2C(=O)CCC3)cc1` [Compound 23, N-[4-(Dimethylaminomethyl)phenyl]-4-oxo-4,5,6,7-tetrahydro-1H-indole-3-carboxamide], the melting point was in the range of 216 to 218 °C. With `CNCc1ccc(NC(=O)c2c[nH]c3c2C(=O)CC(C)C3)cc1` (centres unmarked) [Compound 27, N-[4-(Methylaminomethyl)phenyl]-4-oxo-6-methyl-4,5,6,7-tetrahydro-1H-indole-3-carboxamide] the figure was 217 to 219 °C. With `CC1CC(=O)c2c(C(=O)Nc3ccc(CO)cc3)c[nH]c2C1` (centres unmarked) [Compound 28, N-[4-(Hydroxymethyl)phenyl]-4-oxo-6-methyl-4,5,6,7-tetrahydro-1H-indole-3-carboxamide] the figure was 260 to 262 °C. For the compound `CC1(C)CC(=O)c2c(C(=O)Nc3ccc(OCCO)cc3)c[nH]c2C1` [Compound 30, N-[4-(2-Hydroxyethoxy)phenyl]-4-oxo-6,6-dimethyl-4,5,6,7-tetrahydro-1H-indole-3-carboxamide], the melting point was 268 to 270 °C.

The compound `CC1(C)CC(=O)c2c(C(=O)Nc3ccc(CO)cc3)c[nH]c2C1` [Compound 31, N-[4-(Hydroxymethyl)phenyl]-4-oxo-6,6-dimethyl-4,5,6,7-tetrahydro-1H-indole-3-carboxamide] showed a melting point of 245 to 247 °C. With `CNCc1ccc(NC(=O)c2c[nH]c3c2C(=O)CC(C)(C)C3)cc1` [Compound 32, N-[4-(Methylaminomethyl)phenyl]-4-oxo-6,6-dimethyl-4,5,6,7-tetrahydro-1H-indole-3-carboxamide] the figure was 230 to 232 °C; with `O=C(Nc1ccc2c(c1)NCCO2)c1c[nH]c2c1C(=O)CCC2` [Compound 33, N-(3,4-Dihydro-2H-1,4-benzoxazin-6-yl)-4-oxo-4,5,6,7-tetrahydro-1H-indole-3-carboxamide], 216 °C. With `O=C(Nc1ccc2c(c1)CCN2)c1c[nH]c2c1C(=O)CCC2` [Compound 35, N-(2,3-Dihydro-1H-indol-5-yl)4-oxo-4,5,6,7-tetrahydro-1H-indole-3-carboxamide] the figure was 283 to 286 °C.

For `CC1(C)CCc2[nH]cc(C(=O)Nc3ccc4c(c3)OCCO4)c2C1=O` [Compound 37, N-(2,3-Dihydro-1,4-benzodioxin-6-yl)-4-oxo-5,5-dimethyl-4,5,6,7-tetrahydro-1H-indole-3-carboxamide], the melting point lay within 241 to 243 °C.

Regarding `CC1(C)CCc2[nH]cc(C(=O)Nc3ccc4c(c3)OCOC4)c2C1=O` [Compound 38, N-(4H-1,3-Benzodioxin-7-yl)-4-oxo-5,5-dimethyl-4,5,6,7-tetrahydro-1H-indole-3-carboxamide], the melting point was 251 to 252 °C.

`O=C(Nc1ccc2c(c1)OCO2)c1c[nH]c2c1C(=O)CCCC2` [Compound 39, N-(1,3-Benzodioxol-5-yl)-4-oxo-1,4,5,6,7,8-hexahydro-cyclohepta[b]pyrrole-3-carboxamide] returned a melting point of 210 to 212 °C. With `CC1CC(=O)c2c(C(=O)Nc3ccc4c(c3)OC(C)(C)O4)c[nH]c2C1` (centres unmarked) [Compound 40, N-(2,2-Dimethyl-1,3-benzodioxol-5-yl)-4-oxo-6-methyl-4,5,6,7-tetrahydro-1H-indole-3-carboxamide] the figure was 155 to 157 °C.

Take `CC1CC(=O)c2c(C(=O)Nc3ccc4c(c3)OCO4)c[nH]c2C1` (centres unmarked) [Compound 41, N-(1,3-Benzodioxol-5-yl)-4-oxo-6-methyl-4,5,6,7-tetrahydro-1H-indole-3-carboxamide]: the melting point was 297 to 299 °C. To `CC1CC(=O)c2c(C(=O)Nc3ccc4c(c3)OCCO4)c[nH]c2C1` (centres unmarked) [Compound 42, N-(2,3-Dihydro-1,4-benzodioxin-6-yl)-4-oxo-6-methyl-4,5,6,7-tetrahydro-1H-indole-3-carboxamide] belongs 290 to 292 °C. For `CC1(C)CC(=O)c2c(C(=O)Nc3ccc4c(c3)OCO4)c[nH]c2C1` [Compound 43, N-(1,3-Benzodioxol-5-yl)-4-oxo-6,6-dimethyl-4,5,6,7-tetrahydro-1H-indole-3-carboxamide], the melting point lay in the range of 245 to 246 °C. To `CC1(C)CC(=O)c2c(C(=O)Nc3ccc4c(c3)OCOC4)c[nH]c2C1` [Compound 45, N-(4H-1,3-Benzodioxin-7-yl)-4-oxo-6,6-dimethyl-4,5,6,7-tetrahydro-1H-indole-3-carboxamide] belongs 234 to 236 °C. To `O=C(Nc1ccc(CCN2CCCC2)cc1)c1c[nH]c2c1C(=O)CCC2` [Compound 59, N-[4-(2-Pyrrolidin-1-ylethyl)phenyl]-4-oxo-4,5,6,7-tetrahydro-1H-indole-3-carboxamide] belongs 184 to 186 °C; to `CCNCCOc1ccc(NC(=O)c2c[nH]c3c2C(=O)CCC3)cc1` [Compound 62, N-[4-(2-Ethylaminoethoxy)phenyl]-4-oxo-4,5,6,7-tetrahydro-1H-indole-3-carboxamide], 140 to 141 °C. Take `CCCNCCOc1ccc(NC(=O)c2c[nH]c3c2C(=O)CCC3)cc1` [Compound 64, N-[4-(2-n-Propylaminoethoxy)phenyl]-4-oxo-4,5,6,7-tetrahydro-1H-indole-3-carboxamide]: the melting point lay in the range of 130 to 133 °C. On to `CC(C)NCCOc1ccc(NC(=O)c2c[nH]c3c2C(=O)CCC3)cc1` [Compound 69, N-[4-(2-Isopropylaminoethoxy)phenyl]-4-oxo-4,5,6,7-tetrahydro-1H-indole-3-carboxamide], for which the melting point was in the range of 284 to 286 °C. To `O=C(Nc1ccc(OCCNCC2CC2)cc1F)c1c[nH]c2c1C(=O)CCC2` [Compound 72, N-[2-Fluoro-4-(2-Cyclopropylmethylaminoethoxy)phenyl]-4-oxo-4,5,6,7-tetrahydro-1H-indole-3-carboxamide] belongs 247 to 250 °C. To `CC(C)CNCCOc1ccc(NC(=O)c2c[nH]c3c2C(=O)CCC3)c(F)c1` [Compound 76, N-[2-Fluoro-4-(2-Isobutylaminoethoxy)phenyl]-4-oxo-4,5,6,7-tetrahydro-1H-indole-3-carboxamide] belongs 152 to 155 °C; to `CC(C)CNCCOc1ccc(NC(=O)c2c[nH]c3c2C(=O)CCC3)cc1F` [Compound 77, N-[3-Fluoro-4-(2-Isobutylaminoethoxy)phenyl]-4-oxo-4,5,6,7-tetrahydro-1H-indole-3-carboxamide], 147 to 149 °C. On to `CC(C)(C)NCCOc1ccc(NC(=O)c2c[nH]c3c2C(=O)CCC3)cc1` [Compound 81, N-[4-(2-t-Butylaminoethoxy)phenyl]-4-oxo-4,5,6,7-tetrahydro-1H-indole-3-carboxamide], for which the melting point was 290 to 292 °C.

By melting point is commonly meant the temperature, or range, at which the solid turns liquid.
